Reference: patent US12029738B2, “Antiproliferative compounds and methods of use thereof” (Celgene Corporation, priority 2017, dated 2024)
Read-outs that look alike come from different tables or passages of the source.

Assays:
Assay in all cases: Flow cytometry proliferation/apoptosis assay (120 h)
Assay type in all cases: cell-based, human
JJN-3 = system: JJN-3
Description: Methods. […] Using 5 mM stocks, compounds were pre-spotted into the appropriate wells of 96-well plates using a Hewlett-Packard D300 Digital Dispenser. Cells were added to 96-well plates using a Multidrop Combi Reagent Dispenser. After 5 days of treatment, flow cytometric analysis was used to determine the number of cells that were alive, dead, or apoptotic. After 5 days of treatment, cells were incubated with annexin V to stain exposed phosphatidylserine, an apoptotic cell-surface marker, and the vital dye 7-AAD, which is excluded from cells with intact cell membranes, and analyzed by flow cytometry (Attune®, Thermo Fisher). Analysis was then performed to determine the number of live cells (annexin V and 7-AAD double negative staining cells) and the percentage of apoptotic cells (annexin V positive cells) for each condition, relative to the DMSO control treated, was calculated. All described values were normalized to DMSO-only treated cells. […] The live cell count for every concentration was normalized to the DMSO control (considered as 100%) in Microsoft Excel to generate the proliferation curves. […] Similarly, for apoptosis analysis, the percentage of drug-induced apoptosis was calculated for all doses by combining both “early” (annexin V positive and 7-AAD negative) and “late” apoptosis (annexin V and 7-AAD positive) values and subtracting background values (cell treated with vehicle control DMSO). […] The area under the dose-response curve (AUC) was calculated since it integrates potency and efficacy of the drugs to represent apoptosis into a single parameter.
Each data point represents 2 independent experiments with at least two samples in each experiment.

NCI-H929-1051 = conditions: for induced apoptosis AUC (area under the dose response curve): H929-1051, scale 0-10000; for IC50: Homo sapiens, NCI-H929-1051, read-out: Antiproliferative Activity (Flow Cytometry) IC50
Description: (§1) Methods. […] Using 5 mM stocks, compounds were pre-spotted into the appropriate wells of 96-well plates using a Hewlett-Packard D300 Digital Dispenser. Cells were added to 96-well plates using a Multidrop Combi Reagent Dispenser. After 5 days of treatment, flow cytometric analysis was used to determine the number of cells that were alive, dead, or apoptotic. After 5 days of treatment, cells were incubated with annexin V to stain exposed phosphatidylserine, an apoptotic cell-surface marker, and the vital dye 7-AAD, which is excluded from cells with intact cell membranes, and analyzed by flow cytometry (Attune®, Thermo Fisher). Analysis was then performed to determine the number of live cells (annexin V and 7-AAD double negative staining cells) and the percentage of apoptotic cells (annexin V positive cells) for each condition, relative to the DMSO control treated, was calculated. All described values were normalized to DMSO-only treated cells. All proliferation and apoptosis induction curves were processed and graphed as percent of control using XLFit (IDBS, Alameda, CA) and GraphPad Prism 7.03 (GraphPad Software, La Jolla, CA). The live cell count for every concentration was normalized to the DMSO control (considered as 100%) in Microsoft Excel to generate the proliferation curves. […] Similarly, for apoptosis analysis, the percentage of drug-induced apoptosis was calculated for all doses by combining both “early” (annexin V positive and 7-AAD negative) and “late” apoptosis (annexin V and 7-AAD positive) values and subtracting background values (cell treated with vehicle control DMSO). The AUC values for apoptosis curves were calculated by performing area under curve analysis on GraphPad Prism 7.03. The area under the dose-response curve (AUC) was calculated since it integrates potency and efficacy of the drugs to represent apoptosis into a single parameter. The IC50 values for Compound 2 and pomalidomide in the flow cytometry assays are presented Table 9.
(§2) The apoptosis induction effect of Compound 2 was assessed using flow cytometry after 120 h of treatment and compared with pomalidomide treatment. […] Each data point represents 2 independent experiments with at least two samples in each experiment. (Table 10).

ARH-77 = conditions: for IC50: Homo sapiens, read-out: Antiproliferative Activity (Flow Cytometry) IC50; for induced apoptosis AUC (area under the dose response curve): scale 0-10000
Description: as §1, §2

EJM = conditions: for IC50: Homo sapiens, read-out: Antiproliferative Activity (Flow Cytometry) IC50; for induced apoptosis AUC (area under the dose response curve): scale 0-10000
Description: as §1, §2

SK-MM-2 = conditions: for IC50: Homo sapiens, SK-MM-2, read-out: Antiproliferative Activity (Flow Cytometry) IC50; for induced apoptosis AUC (area under the dose response curve): SKMM-2, scale 0-10000
Description: as §1, §2

IM-9 = conditions: for IC50: Homo sapiens, read-out: Antiproliferative Activity (Flow Cytometry) IC50; for induced apoptosis AUC (area under the dose response curve): scale 0-10000
Description: as §1, §2

U266 = conditions: for IC50: Homo sapiens, U-266, read-out: Antiproliferative Activity (Flow Cytometry) IC50; for induced apoptosis AUC (area under the dose response curve): scale 0-10000
Description: as §1, §2

RPMI-8226 = conditions: for IC50: Homo sapiens, read-out: Antiproliferative Activity (Flow Cytometry) IC50; for induced apoptosis AUC (area under the dose response curve): scale 0-10000
Description: as §1, §2

L363 = conditions: for IC50: Homo sapiens, L-363, read-out: Antiproliferative Activity (Flow Cytometry) IC50; for induced apoptosis AUC (area under the dose response curve): scale 0-10000
Description: as §1, §2

KMS34 = conditions: for IC50: Homo sapiens, KMS-34, KMS34, read-out: Antiproliferative Activity (Flow Cytometry) IC50; for induced apoptosis AUC (area under the dose response curve): KMS-34, scale 0-10000
Description: as §1, §2

KMS-11 = conditions: for IC50: Homo sapiens, read-out: Antiproliferative Activity (Flow Cytometry) IC50; for induced apoptosis AUC (area under the dose response curve): scale 0-10000
Description: as §1, §2

CAG = conditions: for IC50: Homo sapiens, read-out: Antiproliferative Activity (Flow Cytometry) IC50; for induced apoptosis AUC (area under the dose response curve): scale 0-10000
Description: as §1, §2

OPM2-P10 = conditions: for IC50: Homo sapiens, read-out: Antiproliferative Activity (Flow Cytometry) IC50; for induced apoptosis AUC (area under the dose response curve): scale 0-10000
Description: as §1, §2

[1] = JJN-3 (DSMZ); 120 h; scale 0-10000

`N#Cc1ccc(N2CCN(Cc3ccc(COc4cccc5c4CN([C@H]4CCC(=O)NC4=O)C5=O)cc3)CC2)c(F)c1` [Compound 2, (S)-4-(4-(4-(((2-(2,6-dioxopiperidin-3-yl)-1-oxoisoindolin-4-yl)oxy)methyl)benzyl)piperazin-1-yl)-3-fluorobenzonitrile] was tested, and the IC50 (JJN-3; Homo sapiens, JJN-3, 120 h, read-out: Antiproliferative Activity (Flow Cytometry) IC50) was 0.1 nM, the “induced apoptosis AUC (area under the dose response curve)” value (“induced apoptosis AUC” for short) (JJN-3; [1]) was 1125 and the “induced apoptosis AUC” value (NCI-H929-1051) was 3968. The IC50 (NCI-H929-1051) was 0.45 nM, the IC50 (ARH-77) was over 10000 nM and the “induced apoptosis AUC” value (ARH-77) was 709. The IC50 (EJM) was 0.43 nM, the “induced apoptosis AUC” value (EJM) was 2591 and the IC50 (SK-MM-2) was 0.82 nM. The “induced apoptosis AUC” value (SK-MM-2) was 3204, the IC50 (IM-9) was 5570 nM and the “induced apoptosis AUC” value (IM-9) was 323.9. For the same molecule, the IC50 (U266) was 0.19 nM, the “induced apoptosis AUC” value (U266) was 927.8 and the IC50 (RPMI-8226) was 0.75 nM. For the same molecule, the “induced apoptosis AUC” value (RPMI-8226) was 3245, the IC50 (L363) was 0.16 nM and the “induced apoptosis AUC” value (L363) was 347. The IC50 (KMS34) was 0.45 nM, the “induced apoptosis AUC” value (KMS34) was 1614 and the IC50 (KMS-11) was 1.41 nM. The “induced apoptosis AUC” value (KMS-11) was 1270, the IC50 (CAG) was 0.12 nM and the “induced apoptosis AUC” value (CAG) was 5804. For the same molecule, the IC50 (OPM2-P10) was 1.81 nM and the “induced apoptosis AUC” value (OPM2-P10) was 1768.
For `Nc1cccc2c1C(=O)N(C1CCC(=O)NC1=O)C2=O` (stereo not shown) [Pomalidomide, pomalidomide], the IC50 (JJN-3; Homo sapiens; JJN-3; 120 h; read-out: Antiproliferative Activity (Flow Cytometry) IC50) was 366 nM, the “induced apoptosis AUC” value (JJN-3; [1]) was 199.1 and the “induced apoptosis AUC” value (NCI-H929-1051) was 423. For the same molecule, the IC50 (NCI-H929-1051) was 1950 nM, the IC50 (ARH-77) was over 10000 nM and the “induced apoptosis AUC” value (ARH-77) was 28.16. The IC50 (EJM) was 2840 nM, the “induced apoptosis AUC” value (EJM) was 900 and the IC50 (SK-MM-2) was over 10000 nM. The “induced apoptosis AUC” value (SK-MM-2) was 1033, the IC50 (IM-9) was over 10000 nM and the “induced apoptosis AUC” value (IM-9) was 25.4. The IC50 (U266) was 381 nM, the “induced apoptosis AUC” value (U266) was 373 and the IC50 (RPMI-8226) was over 10000 nM. For the same molecule, the “induced apoptosis AUC” value (RPMI-8226) was 1369, the IC50 (L363) was over 10000 nM and the “induced apoptosis AUC” value (L363) was 293. The IC50 (KMS34) was over 10000 nM, the “induced apoptosis AUC” value (KMS34) was 429.7 and the IC50 (KMS-11) was 5290 nM. The “induced apoptosis AUC” value (KMS-11) was 234.4, the IC50 (CAG) was 1080 nM and the “induced apoptosis AUC” value (CAG) was 1561. The IC50 (OPM2-P10) was over 10000 nM and the “induced apoptosis AUC” value (OPM2-P10) was 108.7.
